In patent US8227511B2, “Substituted chromanol derivatives and their use” (Bayer Intellectual Property GmbH, priority 2006, dated 2012):

Experiments:
CETP [1] = biological target: T1, CETP (Homo sapiens, UniProt P11597); test: CETP-SPA test; format: biochemical; conditions: transfer of 3H-cholesterol ester from human HDL to biotinylated LDL; 37° C. for 18 h
T1 construct: CETP is obtained in partially purified form from human plasma by differential centrifugation and column chromatography and used for the test; from tissue; host or cells: human plasma
T1 sequence (P11597 18-493): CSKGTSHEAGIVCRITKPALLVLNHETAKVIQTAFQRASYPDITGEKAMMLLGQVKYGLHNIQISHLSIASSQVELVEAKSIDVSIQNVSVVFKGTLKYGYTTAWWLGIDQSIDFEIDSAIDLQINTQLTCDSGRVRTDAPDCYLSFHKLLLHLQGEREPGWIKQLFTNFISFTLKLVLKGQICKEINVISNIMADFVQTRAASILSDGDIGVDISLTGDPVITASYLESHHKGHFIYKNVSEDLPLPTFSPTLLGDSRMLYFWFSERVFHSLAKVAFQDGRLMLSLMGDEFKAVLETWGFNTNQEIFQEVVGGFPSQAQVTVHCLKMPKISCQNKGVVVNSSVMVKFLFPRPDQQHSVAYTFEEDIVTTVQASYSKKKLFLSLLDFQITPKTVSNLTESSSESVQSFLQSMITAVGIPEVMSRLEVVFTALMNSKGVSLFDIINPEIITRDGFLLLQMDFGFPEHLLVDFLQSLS
Method: (§1) CETP is obtained in partially purified form from human plasma by differential centrifugation and column chromatography and used for the test. To this end, human plasma is adjusted to a density of 1.21 g per ml using NaBr and centrifuged at 4° C. at 50 000 rpm for 18 h. The bottom fraction (d>1.21 g/ml) is applied to a Phenyl-Sepharose 26/10 HP fast flow-column (Pharmacia), washed with PBS buffer and then eluted with distilled water. 10 parts of PBS buffer and 1% (w/v) BSA are added to the eluate. The CETP-active fractions are pooled.
For testing of the CETP activity, the transfer of ^3H-cholesterol ester from human HD lipoproteins to biotinylated LD lipoproteins is measured. The reaction is ended by addition of streptavidin-SPA® beads (Amersham) and the transferred radioactivity is determined directly in a liquid scintillation counter.
In the test batch, 10 μl of HDL-3H-cholesterol ester (about 50 000 cpm) are incubated at 37° C. for 18 h with 10 μl of biotin-LDL (Amersham) in 50 mM Hepes/0.15 M NaCl/0.1% bovine serum albumin (RSA)/0.05% NaN3 pH 7.4 containing 10 μl of CETP (1 mg/ml) and 3 μl of a solution of the substance to be tested (dissolved in 10% DMSO/1% RSA). 200 μl of the SPA-streptavidin bead solution (TRKQ 7005) are then added, incubated further with shaking for 1 h and then measured in a scintillation counter. Corresponding incubations with 10 μl of buffer, 10 μl of CETP at 4° C. and 10 μl of CETP at 37° C. serve as controls.
The activity transferred in the control batches with CETP at 37° C. is rated as 100% transfer. The substance concentration at which this transfer is reduced to half is specified as the IC50 value.

CETP [2] = biological target: T1, CETP; test: CETP fluorescence test with enriched CETP; format: biochemical; conditions: enriched CETP fraction from human plasma; transfer of fluorescent cholesterol ester between liposomes; 37° C. for 4 h
Method: as §1
Measurement of the CETP-catalyzed transfer of a fluorescent cholesterol ester between liposomes [modified according to the procedure of Bisgaier et al., J. Lipid Res. 34, 1625 (1993)]:
For the production of the donor liposomes, 1 mg of cholesteryl 4,4-difluoro-5,7-dimethyl-4-bora-3a,4a-diaza-s-indacene-3-dodecanoate (cholesteryl BODIPY® FL C12, Molecular Probes) is dissolved in 2 ml of chloroform with 5.35 mg of triolein and 6.67 mg of phosphatidylcholine. The solvent is removed at medium temperature in a SpeedVac and the residue is dried under high vacuum for 1 h. The residue is then dissolved in 600 μl of dioxane with gentle warming in an ultrasonic bath and this solution is added very slowly with ultrasonication to 63 ml of 50 mM Tris/HCl, 150 mM NaCl, 2 mM EDTA buffer pH 7.3 at room temperature. The suspension is then ultrasonicated under an N2 atmosphere for 30 minutes in the Branson ultrasonic bath at about 50 watts, the temperature being kept at about 20° C.
The acceptor liposomes are obtained analogously from 86 mg of cholesteryl oleate, 20 mg of triolein and 100 mg of phosphatidylcholine dissolved in 1.2 ml of dioxane and 114 ml of the above buffer by ultrasonication at 50 watts (20° C.) for 30 minutes.
For testing, a test mix consisting of 1 part of above buffer, 1 part of donor liposomes and 2 parts of acceptor liposomes is used.
50 μl of test mix are treated with 48 μl of enriched CETP fraction (1-3 μg), obtained from human plasma by means of hydrophobic chromatography, and 2 μl of a solution of the substance to be investigated in DMSO and incubated at 37° C. for 4 h.
The change in the fluorescence at 485/535 nm is a measure of the CE transfer; the inhibition of the transfer in comparison to the control batch without substance is determined.

transgenic hCETP mice = test: Measurement of the in vivo activity in transgenic hCETP mice; conditions: perorally once a day on 3 days, percentage change compared with the starting value
Method: To determine the oral action on lipoproteins and triglycerides, test substance is administered perorally to transgenic mice [Dinchuk et al., BBA, 1295-1301 (1995)] using a stomach tube once a day on 3 days. For this purpose, the substances are dissolved in 10% Solutol HS 15/10% ethanol/80% of a 0.9% strength sodium chloride solution; the administration volume is generally 10 ml per kg of body weight. Before the start of the experiment, blood is withdrawn from the mice retro-orbitally in order to determine cholesterol and triglycerides in the serum. The serum is obtained as described above for hamsters by incubation at room temperature for 30 min and subsequent centrifugation at 6000 g. On the day after the last administration of substance, blood is again withdrawn from the mice in order to determine lipoproteins and triglycerides. The changes in the parameters measured are expressed as the percentage change compared with the starting value.

IC50 (CETP [1])	IC50 (CETP [2])	Compound	% increase of HDL after 3 d (dose: 3 × 3 mg/kg) (transgenic hCETP mice)
4 nM	19 nM	CC(C)c1cc2c(c(-c3ccc(F)cc3)c1Cc1ccc(C(F)(F)F)cc1)[C@@H](O)CC1(CCC1)O2 [Example 32, (4S)-5-(4-Fluorophenyl)-7-isopropyl-6-[4-(trifluoromethyl)benzyl]-3,4-dihydrospiro[chromen-2,1′-cyclobutan]-4-ol]	31%
20 nM	32 nM	CC(C)c1cc2c(c(-c3ccc(F)cc3)c1[C@@H](F)c1ccc(C(F)(F)F)cc1)[C@@H](O)CC(C)(C)O2 [Example 7, (4S)-5-(4-Fluorophenyl)-6-{(S)-fluoro[4-(trifluoromethyl)phenyl]methyl}-7-isopropyl-2,2-dimethylchroman-4-ol]	67%
22 nM	77 nM	CC(C)c1cc2c(c(-c3ccc(F)cc3)c1[C@@H](O)c1ccc(C(F)(F)F)cc1)[C@@H](O)CC1(CCC1)O2 [Example 28, (4S)-5-(4-Fluorophenyl)-6-{(S)-hydroxy[4-(trifluoromethyl)phenyl]methyl}-7-isopropyl-3,4-dihydrospiro[chromen-2,1′-cyclobutan]-4-ol]	25%
6 nM	28 nM	CC(C)c1cc2c(c(-c3ccc(F)cc3)c1Cc1ccc(C(C)(C)C)cc1)[C@@H](O)CC1(CCC1)O2 [Example 36, (4S)-6-(4-tert-Butylbenzyl)-5-(4-fluorophenyl)-7-isopropyl-3,4-dihydrospiro[chromen-2,1′-cyclo-butan]-4-ol]	40%
21 nM	26 nM	CC(C)c1cc2c(c(C3CCCC3)c1[C@@H](F)c1ccc(C(F)(F)F)cc1)[C@@H](O)CC1(CCC1)O2 [Example 42, (4S)-5-Cyclopentyl-6-{(S)-fluoro[4-(trifluoromethyl)phenyl]methyl}-7-isopropyl-3,4-dihydrospiro-[chroman-2,1′-cyclobutan]-4-ol]	81%
12 nM	18 nM	CC(C)c1cc2c(c(-c3ccc(F)cc3)c1[C@@H](F)c1ccc(C(F)(F)F)cc1)[C@@H](O)CC1(CCC1)O2 [Example 30, (4S)-5-(4-Fluorophenyl)-6-{(S)-fluoro[4-(trifluoromethyl)phenyl]methyl}-7-isopropyl-3,4-dihydro-spiro[chromen-2,1′-cyclobutan]-4-ol]	83%
18 nM	35 nM	CC(C)c1cc2c(c(-c3ccc(F)cc3)c1C(=O)c1ccc(C(F)(F)F)cc1)[C@@H](O)CC1(CCC1)O2 [Example 27, [(4S)-5-(4-Fluorophenyl)-4-hydroxy-7-isopropyl-3,4-dihydrospiro[chromen-2,1′-cyclobutan]-6-yl]-[4-(trifluoromethyl)phenyl]methanone]	
15 nM	30 nM	CC(C)(C)c1ccc(Cc2c(C3CCCC3)cc3c(c2-c2ccc(F)cc2)[C@@H](O)CC2(CCC2)O3)cc1 [Example 50]	
